Test results published in PubChem BioAssay (NCI).
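1) Cells in 96-well plates. 2) Compound, 48 h, 5 concentrations. 3) Linear interpolation between surrounding doses. 4) Unreached endpoint = highest concentration. The concentration for 50% growth inhibition is given as GI50. TGI: concentration producing complete growth inhibition.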

Experiments:
Assay in all cases: NCI anticancer screen, dose series, 48 h
[1] = test system: OVCAR-8 ovarian
[2] = test system: NCI-H23 lung
[3] = test system: NCI-H460 lung
[4] = test system: ACHN renal
[5] = test system: PC-3 prostate
[6] = test system: EKVX NSCLC
[7] = test system: CAKI-1 renal
[8] = test system: OVCAR-5 ovarian
[9] = test system: MOLT-4 leukemia
[10] = test system: U251 CNS
[11] = test system: A498 renal
[12] = test system: KM12 colon
[13] = test system: MCF7 breast
[14] = test system: TK-10 renal
[15] = test system: UACC-257 melanoma
[16] = test system: SNB-75 CNS
[17] = test system: LOX IMVI melanoma
[18] = test system: HOP-62 NSCLC
[19] = test system: 786-0 renal
[20] = test system: T-47D breast
[21] = test system: SK-MEL-2 melanoma
[22] = test system: SF-268 CNS
[23] = test system: NCI/ADR-RES ovarian
[24] = test system: HCT-116 colon
[25] = test system: COLO 205 colon
[26] = test system: BT-549 breast
[27] = test system: SN12C renal
[28] = test system: SR leukemia
[29] = test system: OVCAR-4 ovarian
[30] = test system: MALME-3M melanoma
[31] = test system: HL-60(TB) leukemia
[32] = test system: SF-539 CNS
[33] = test system: DU-145 prostate
[34] = test system: SF-295 CNS
[35] = test system: HT29 colon
[36] = test system: HCT-15 colon
[37] = test system: OVCAR-3 ovarian
[38] = test system: SK-OV-3 ovarian
[39] = test system: CCRF-CEM leukemia
[40] = test system: NCI-H226 lung
[41] = test system: SK-MEL-5 melanoma
[42] = test system: M14 melanoma
[43] = test system: MDA-MB-435
[44] = test system: RXF 393 renal
[45] = test system: NCI-H522 lung
[46] = test system: IGROV1 ovarian
[47] = test system: A549 NSCLC
[48] = test system: RPMI-8226 leukemia
[49] = test system: K-562 leukemia
[50] = test system: UACC-62 melanoma
[51] = test system: SNB-19 CNS
[52] = test system: HS 578T breast
[53] = test system: MDA-MB-231 breast
[54] = test system: SK-MEL-28 melanoma
[55] = test system: SW-620 colon
[56] = test system: HCC-2998 colon
[57] = test system: UO-31 renal

Q: With O=C1CSC(N2CCN(c3cccc(Cl)c3)CC2)=N1 as the compound, how does the GI50 [1] read?
A: Its GI50 is over 100 µM.

Q: What about the TGI [1] of the same compound?
A: The TGI was over 100 µM.

Q: What about the GI50 [2] of the same compound?
A: The GI50 was over 100 µM.

Q: What about the TGI [2] of the same compound?
A: The TGI was over 100 µM.

Q: What about the GI50 [3] of the same compound?
A: Its GI50 is over 100 µM.

Q: And the TGI [3]?
A: Its TGI is over 100 µM.

Q: And the GI50 [4]?
A: Its GI50 is over 100 µM.

Q: What about the TGI [4] of the same compound?
A: Its TGI is over 100 µM.

Q: What about the GI50 [5] of the same compound?
A: Its GI50 is over 100 µM.

Q: And the TGI [5]?
A: The TGI was over 100 µM.

Q: And the GI50 [6]?
A: Its GI50 is over 100 µM.

Q: And the TGI [6]?
A: Its TGI is over 100 µM.

Q: And the GI50 [7]?
A: The GI50 was over 100 µM.

Q: And the TGI [7]?
A: Its TGI is over 100 µM.

Q: What about the GI50 [8] of the same compound?
A: Its GI50 is over 100 µM.

Q: And the TGI [8]?
A: The TGI was over 100 µM.

Q: And the GI50 [9]?
A: The GI50 was over 100 µM.

Q: And the TGI [9]?
A: The TGI was over 100 µM.

Q: What about the GI50 [10] of the same compound?
A: Its GI50 is over 100 µM.

Q: What about the TGI [10] of the same compound?
A: The TGI was over 100 µM.

Q: And the GI50 [11]?
A: Its GI50 is over 100 µM.

Q: What about the TGI [11] of the same compound?
A: Its TGI is over 100 µM.

Q: And the GI50 [12]?
A: Its GI50 is over 100 µM.

Q: And the TGI [12]?
A: The TGI was over 100 µM.

Q: And the GI50 [13]?
A: Its GI50 is over 100 µM.

Q: What about the TGI [13] of the same compound?
A: The TGI was over 100 µM.

Q: What about the GI50 [14] of the same compound?
A: The GI50 was over 100 µM.

Q: And the TGI [14]?
A: Its TGI is over 100 µM.

Q: And the GI50 [15]?
A: Its GI50 is over 100 µM.

Q: What about the TGI [15] of the same compound?
A: Its TGI is over 100 µM.

Q: What about the GI50 [16] of the same compound?
A: Its GI50 is 84.9 µM.

Q: And the TGI [16]?
A: The TGI was over 100 µM.

Q: What about the GI50 [17] of the same compound?
A: Its GI50 is over 100 µM.

Q: And the TGI [17]?
A: Its TGI is over 100 µM.

Q: What about the GI50 [18] of the same compound?
A: Its GI50 is over 100 µM.

Q: And the TGI [18]?
A: The TGI was over 100 µM.

Q: What about the GI50 [19] of the same compound?
A: Its GI50 is over 100 µM.

Q: What about the TGI [19] of the same compound?
A: Its TGI is over 100 µM.

Q: What about the GI50 [20] of the same compound?
A: Its GI50 is over 100 µM.

Q: And the TGI [20]?
A: The TGI was over 100 µM.

Q: What about the GI50 [21] of the same compound?
A: Its GI50 is over 100 µM.

Q: And the TGI [21]?
A: The TGI was over 100 µM.

Q: What about the GI50 [22] of the same compound?
A: The GI50 was over 100 µM.

Q: And the TGI [22]?
A: The TGI was over 100 µM.

Q: And the GI50 [23]?
A: Its GI50 is over 100 µM.

Q: And the TGI [23]?
A: Its TGI is over 100 µM.

Q: And the GI50 [24]?
A: The GI50 was over 100 µM.

Q: And the TGI [24]?
A: The TGI was over 100 µM.

Q: What about the GI50 [25] of the same compound?
A: Its GI50 is over 100 µM.

Q: What about the TGI [25] of the same compound?
A: The TGI was over 100 µM.

Q: What about the GI50 [26] of the same compound?
A: Its GI50 is over 100 µM.

Q: And the TGI [26]?
A: The TGI was over 100 µM.

Q: And the GI50 [27]?
A: Its GI50 is over 100 µM.

Q: And the TGI [27]?
A: The TGI was over 100 µM.

Q: What about the GI50 [28] of the same compound?
A: Its GI50 is over 100 µM.

Q: What about the TGI [28] of the same compound?
A: The TGI was over 100 µM.

Q: What about the GI50 [29] of the same compound?
A: The GI50 was over 100 µM.

Q: What about the TGI [29] of the same compound?
A: Its TGI is over 100 µM.

Q: And the GI50 [30]?
A: Its GI50 is over 100 µM.

Q: And the TGI [30]?
A: The TGI was over 100 µM.

Q: And the GI50 [31]?
A: The GI50 was over 100 µM.

Q: And the TGI [31]?
A: Its TGI is over 100 µM.

Q: And the GI50 [32]?
A: The GI50 was over 100 µM.

Q: What about the TGI [32] of the same compound?
A: The TGI was over 100 µM.

Q: What about the GI50 [33] of the same compound?
A: The GI50 was over 100 µM.

Q: And the TGI [33]?
A: Its TGI is over 100 µM.

Q: And the GI50 [34]?
A: Its GI50 is over 100 µM.

Q: What about the TGI [34] of the same compound?
A: Its TGI is over 100 µM.

Q: What about the GI50 [35] of the same compound?
A: The GI50 was 46 µM.

Q: What about the TGI [35] of the same compound?
A: The TGI was over 100 µM.

Q: What about the GI50 [36] of the same compound?
A: Its GI50 is over 100 µM.

Q: What about the TGI [36] of the same compound?
A: Its TGI is over 100 µM.

Q: And the GI50 [37]?
A: The GI50 was over 100 µM.

Q: What about the TGI [37] of the same compound?
A: Its TGI is over 100 µM.

Q: And the GI50 [38]?
A: Its GI50 is over 100 µM.

Q: And the TGI [38]?
A: The TGI was over 100 µM.

Q: And the GI50 [39]?
A: Its GI50 is over 100 µM.

Q: What about the TGI [39] of the same compound?
A: Its TGI is over 100 µM.

Q: What about the GI50 [40] of the same compound?
A: The GI50 was over 100 µM.

Q: And the TGI [40]?
A: Its TGI is over 100 µM.

Q: What about the GI50 [41] of the same compound?
A: The GI50 was over 100 µM.

Q: What about the TGI [41] of the same compound?
A: Its TGI is over 100 µM.

Q: And the GI50 [42]?
A: The GI50 was over 100 µM.

Q: What about the TGI [42] of the same compound?
A: The TGI was over 100 µM.

Q: What about the GI50 [43] of the same compound?
A: The GI50 was over 100 µM.

Q: And the TGI [43]?
A: Its TGI is over 100 µM.

Q: What about the GI50 [44] of the same compound?
A: Its GI50 is over 100 µM.

Q: And the TGI [44]?
A: The TGI was over 100 µM.

Q: What about the GI50 [45] of the same compound?
A: The GI50 was over 100 µM.

Q: And the TGI [45]?
A: Its TGI is over 100 µM.

Q: What about the GI50 [46] of the same compound?
A: The GI50 was over 100 µM.

Q: And the TGI [46]?
A: Its TGI is over 100 µM.

Q: What about the GI50 [47] of the same compound?
A: Its GI50 is over 100 µM.

Q: And the TGI [47]?
A: Its TGI is over 100 µM.

Q: And the GI50 [48]?
A: The GI50 was over 100 µM.

Q: What about the TGI [48] of the same compound?
A: Its TGI is over 100 µM.

Q: What about the GI50 [49] of the same compound?
A: Its GI50 is over 100 µM.

Q: What about the TGI [49] of the same compound?
A: The TGI was over 100 µM.

Q: And the GI50 [50]?
A: The GI50 was over 100 µM.

Q: What about the TGI [50] of the same compound?
A: The TGI was over 100 µM.

Q: And the GI50 [51]?
A: The GI50 was over 100 µM.

Q: What about the TGI [51] of the same compound?
A: Its TGI is over 100 µM.

Q: And the GI50 [52]?
A: Its GI50 is over 100 µM.

Q: What about the TGI [52] of the same compound?
A: Its TGI is over 100 µM.

Q: And the GI50 [53]?
A: The GI50 was over 100 µM.

Q: And the TGI [53]?
A: The TGI was over 100 µM.

Q: And the GI50 [54]?
A: Its GI50 is over 100 µM.

Q: What about the TGI [54] of the same compound?
A: The TGI was over 100 µM.

Q: And the GI50 [55]?
A: Its GI50 is over 100 µM.

Q: And the TGI [55]?
A: Its TGI is over 100 µM.

Q: What about the GI50 [56] of the same compound?
A: The GI50 was over 100 µM.

Q: What about the TGI [56] of the same compound?
A: The TGI was over 100 µM.

Q: And the GI50 [57]?
A: Its GI50 is over 100 µM.

Q: What about the TGI [57] of the same compound?
A: The TGI was over 100 µM.
